Test results: ChEMBL document CHEMBL1125820, “Structure-activity relationship of mutagenic aromatic and heteroaromatic nitro compounds. Correlation with molecular orbital energies and hydrophobicity” (J Med Chem, 1991); call rule not given here

Columns and labels:
Salmonella typhimurium [1] = test: Mutagenic activity in Salmonella Typhimurium TA98 using Ames test; Activity is log of revertants / nmol; a= inactive; format: functional, Salmonella enterica subsp. enterica serovar Typhimurium
[2] = Partition coefficient (logP); details: octanol/water
Salmonella typhimurium [3] = test: Mutagenic activity in an Ames test on Salmonella Typhimurium TA98; Activity is log of revertants/nmol; format: functional, Salmonella enterica subsp. enterica serovar Typhimurium; parameters: scale not given here

| Structure (SMILES) | Activity (Salmonella typhimurium [1]) | logP [2] | Activity (Salmonella typhimurium [3]) |
| --- | --- | --- | --- |
| O=[N+]([O-])c1c2ccccc2cc2ccccc12 | -0.95 | 4.78 | – |
| Nc1cccc(-c2ccccc2[N+](=O)[O-])c1 | – | 2.68 | -2 |
| O=[N+]([O-])c1cc2c3c(ccc4cccc(c43)CC2)c1 | – | 4.99 | 3.27 |
| O=[N+]([O-])c1c2ccccc2cc2c1ccc1ccccc12 | – | 5.41 | -0.52 |
| O=[N+]([O-])c1cc([N+](=O)[O-])c2c3c(c4cccc5ccc1c2c54)CCCC3 | – | 6.01 | 2.41 |
| Cc1nc2cc([N+](=O)[O-])ccc2[nH]1 | – | 1.94 | -0.51 |
| O=[N+]([O-])c1ccc2c(c1)-c1ccc([N+](=O)[O-])c3cccc-2c13 | – | 4.44 | 5.02 |
| O=[N+]([O-])C1Cc2cccc3cccc1c23 (configuration not stated) | – | 2.72 | 1.77 |
| O=[N+]([O-])c1ccc2c3c(cccc13)-c1ccccc1-2 | – | 4.69 | 3.67 |
| O=[N+]([O-])c1cc2c3ccccc3ccc2c2ccccc12 | – | 5.41 | 1.75 |
| O=[N+]([O-])c1c(Cl)c(Cl)c2c(c1Cl)Oc1cc(Cl)c(Cl)cc1O2 | – | 7.84 | -0.33 |
| CC(=O)Nc1ccc2c(c1)Cc1cc([N+](=O)[O-])ccc1-2 | – | 3.08 | 2.85 |
| O=Cc1ccc([N+](=O)[O-])o1 | – | 1.01 | 0.64 |
| O=[N+]([O-])c1ccc2ccc3c4c(cc5ccc1c2c53)CCCC4 | – | 6.57 | 0.3 |
| O=[N+]([O-])c1cccc2c1-c1cccc3c([N+](=O)[O-])ccc-2c13 | – | 4.44 | 5.09 |
| O=[N+]([O-])c1ccc2c(c1)Cc1cccc([N+](=O)[O-])c1-2 | – | 3.71 | 3.2 |

| Structure (SMILES) | Activity (Salmonella typhimurium [1]) | logP [2] | Activity (Salmonella typhimurium [3]) |
| --- | --- | --- | --- |
| Nc1ccc([N+](=O)[O-])cc1[N+](=O)[O-] | – | 1.84 | -1.74 |
| O=[N+]([O-])c1c2c3c(ccc4cccc(c43)CC2)c2ccccc12 | – | 6.16 | 0.3 |
| Cc1c([N+](=O)[O-])ccc2ccccc12 | – | 3.43 | -0.7 |
| O=[N+]([O-])c1ccc2c3ccc([N+](=O)[O-])c4ccc5ccc6ccc1c2c6c5c43 | – | 6.07 | 3.6 |
| O=[N+]([O-])C1=Cc2cccc3c2c1cc1cc2ccccc2cc13 | – | 5.07 | 0.92 |
| O=[N+]([O-])c1ccc2ccc3cc4ccccc4c4ccc1c2c34 | – | 5.87 | 2.63 |
| O=[N+]([O-])c1ccc(F)c([N+](=O)[O-])c1 | – | 1.49 | 1.2 |
| Nc1ccc2c(c1)Cc1cc([N+](=O)[O-])ccc1-2 | – | 3.06 | 1.56 |
| Cc1ccc2cccc([N+](=O)[O-])c2n1 | – | 1.99 | -2.7 |
| Nc1ccccc1-c1ccc([N+](=O)[O-])cc1 | – | 2.68 | -1.7 |
| COc1ccccc1[N+](=O)[O-] [2-NITROANISOLE] | – | 1.73 | -2.7 |
| O=[N+]([O-])c1ccc2c(c1)Cc1cc(I)ccc1-2 | – | 5.09 | 2.97 |
| O=[N+]([O-])c1cc([N+](=O)[O-])c2ccccc2c1 | – | 2.83 | -0.05 |
| O=[N+]([O-])c1cccc2cnccc12 | – | 1.65 | -1.55 |
| O=[N+]([O-])c1ccc2c3ccccc3c3ccccc3c2c1 | – | 5.41 | 4.09 |
